The results in this text go back to patent US5491137A, “14α17α-(Propano-and 17^2 propeno) -estratrienes” (Schering Aktiengesellschaft, priority 1991, dated 1996).

In one experiment the test system is vaginal epithelium. Kind of experiment: Allen-Doisy test (vaginal smears in ovariectomized rats). The settings on record: single administration day 1, smears days 3-5, threshold = amount at which 50% of animals reach stage 3 (estrus). In kind it is in vivo. As for the experimental part:
In the Allen-Doisy test, an evaluation of vaginal smears in ovariectomized rats is performed on days 3-5 (d3-d5) after the one-time administration on day 1 (d1 ) of the test substance. The following cycle stages are distinguished:
1=diestrus (leukocytes and nucleated epithelial cells),
2=proestrus (nucleated epithelial cells),
3=estrus (denucleated horny plaques),
4=metestrus (denucleated horny plaques, leukocytes, epithelial cells).
After oral or subcutaneous administration, estrogenically active substances result in the proliferation of the vaginal epithelium and the hornification of superficial cell layers. Regarded as a threshold value, is the amount of an estrogen at which 50% of the animals reach stage 3. Further, estrogens cause an increase of the uterus weight.

A further experiment relates to Estrogen Receptor. Kind of experiment: Estrogen Receptor Test. Type of experiment: binding. The note with it: KF not defined in the patent.

Take `C[C@]12CC[C@@H]3c4ccc(O)cc4CC[C@H]3[C@@]13C=CC[C@]2(O)CC3` [14α,17α-(17^2 -Propeno)estra-1,3,5(10)-triene-3,17β-diol]: in the experiment with vaginal epithelium, the “Allen-Doisy Test p.o. [ED50]” value is given as under 1 μg/Tier/Tag and the “Allen-Doisy Test s.c. [ED50]” value was 0,1-0,3 μg/Tier/Tag. The “Estrogen Receptor Test [KF]” value in the experiment on Estrogen Receptor was 0,4.
In the case of `C#C[C@]1(O)CC[C@H]2[C@@H]3CCc4cc(O)ccc4[C@H]3CC[C@@]21C` [Ethinylestradiol], in the experiment on vaginal epithelium, the “Allen-Doisy Test p.o. [ED50]” value is 3.0 μg/Tier/Tag and the “Allen-Doisy Test s.c. [ED50]” value is recorded as 0.1-0.3 μg/Tier/Tag. Moreover, the “Estrogen Receptor Test [KF]” value in the experiment on Estrogen Receptor was determined as 0.5.
